Assay results taken from patent US20250288509A1, “Composition for Promoting Photoprotection and Cutaneous Regeneration through Sequential Photonic Transfer (SPT)” (priority 2022, published 2025).

Key:
[1] = test system: primary fibroblasts; assay: Summary of examples: UVB radiation of primary fibroblasts; format: cell-based; conditions: summary statement on the examples
[2] = Continuous absorption spectra of flavonoids, cannabinoids and chlorophylls; format: physicochemical; conditions: continuous absorption spectrum, FIG. 3A/3B
Description: (§1) For the in vitro validation of the Sequential Photonic Transfer (SPT) process, different molecules belonging to the groups of plant-derived compounds previously identified as potential targets have been selected. In particular, the selected molecules are morin and quercetin (flavonoids), cannabinol (CBN), cannabidiol (CBD), and cannabichromene (CBC) (cannabinoids), and chlorophyll A, which are fully representative examples of each target compound group. […] Flavonoids typically have absorption peaks around 260 and 380 nm, while cannabinoids have absorption peaks between 230 and 300 nm (FIG. 3A). […] For these compounds, their emission capacity at 460 nm (blue light) when excited by 280 and 320 nm light (UVB/A) and their emission capacity at 625 nm (red light) when excited by 460 nm light have been evaluated using spectrofluorimetry.
(§2) FIG. 3. […] Spectrofluorimetric quantification in hydroalcoholic standard solutions of emission at 460 nm (blue region of the electromagnetic spectrum) of different compounds after excitation at 280 or 320 nm (UVB/A) (C) and of emission at 625 nm (red region of the electromagnetic spectrum) after excitation at 460 nm (D) (Mn: Morin; Qc: Quercetin; CBD: cannabidiol; CBN: cannabinol; CBC: cannabichromene; Cl: chlorophyll A).

[3] = Spectrofluorimetric quantification of emission in hydroalcoholic standard solutions; format: physicochemical
Description: as §1, §2

[4] = In vitro ROS production by colorimetric Nitro Blue Tetrazolium (NBT) oxidation in hydroalcoholic solution; conditions: excited with UV light (310 nm), FIG. 4
Description: NBT is a specific molecular sensor for superoxide anion production, which is the first type of ROS produced during the reduction of molecular oxygen to generate water. In the presence of superoxide anion, NBT, a colorless molecule in its reduced state, oxidizes to form a chromophore with an absorption peak at 540 nm. The degree of oxidation, and therefore the absorbance at 540 nm, is directly proportional to ROS production. […] However, the combination of flavonoids/cannabinoids, chlorophyll A, and PpIX excited with UV light (310 nm) induces a potent and significant ROS production equivalent to that obtained by exciting PpIX with red light (FIG. 4).
FIG. 4. Quantification of in vitro ROS production measured as absorbance at 540 nm of Nitro Blue Tetrazolium (NBT) compound oxidized by […] production in hydroalcoholic solutions of different compound combinations under basal conditions or excited with UV (310 nm) or red (635 nm) light. Results are expressed as mean+/−standard deviation of three independent experiments. *, […]; ***, P≤0.01 (PpIX: Protoporphyrin IX; Mn: Morin; CBD: cannabidiol; Cl: chlorophyll A).

Structure (SMILES): C=Cc1c(C)c2cc3nc(c4c5[n-]c(cc6nc(cc1[n-]2)C(C)=C6CC)c(C)c5C(=O)[C@@H]4C(=O)OC)[C@@H](CCC(=O)OC/C=C(\C)CCC[C@H](C)CCC[C@H](C)CCCC(C)C)[C@@H]3C.[Mg+2] [chlorophyll A]
- protection of cells from UVB radiation [1]: neither capable of protecting against UVB radiation
- stimulation of proliferation and extracellular matrix protein synthesis [1]: nor stimulating cells in any way
- absorption peaks [2]: around 450 nm
- emission at 460 nm (blue light) ([3]; excited by 280 and 320 nm light (UVB/A), FIG. 3C): no emission of blue light
- emission at 625 nm (red light) ([3]; excited by 460 nm light (blue), FIG. 3D): strong emission of red light
- ROS production (NBT oxidation, absorbance at 540 nm) [4]: unable to induce significant NBT oxidation

Structure (SMILES): C=Cc1c(C)c2cc3nc(c4c5[n-]c(cc6nc(cc1[n-]2)C(C=O)=C6CC)c(C)c5C(=O)[C@@H]4C(=O)OC)[C@@H](CCC(=O)OC/C=C(\C)CCC[C@H](C)CCC[C@H](C)CCCC(C)C)[C@@H]3C.[Mg+2] [chlorophyll B]
- absorption peaks [2]: around 450 nm
